Measurements published in patent US11078214B2, “Monocyclic thieno, pyrido, and pyrrolo pyrimidine compounds and methods of use and manufacture of same” (Duquesne University of the Holy Spirit, priority 2015, dated 2021).
Like-named read-outs stand apart in the source and are kept apart here.

How the values were obtained:
SK-OV-3 MDR-1-6/6 = test: cells; format: cell-based, human
HeLa = test: Antiproliferative SRB assay, parental HeLa; format: cell-based, human
From the text: (§1) A second clinically relevant mechanism of drug resistance to these microtubule agents is the expression of βIII isotype of tubulin. […] The WT βIII cell line was generated from HeLa cells transfected with the gene for/III-tubulin.

D4 CHO cells (FRβ) = test: Growth inhibition of CHO subline D4 expressing FRβ; format: cell-based, Chinese hamster
MDA-MB-435 cancer cells = test: Antiproliferative sulforhodamine B (SRB) assay in MDA-MB-435 cells; format: cell-based, human
WT βIII cell line = test: Antiproliferative SRB assay, WT βIII (HeLa transfected with βIII-tubulin); format: cell-based; conditions: Homo sapiens
From the text: as §1

A-10 cells = test: Cellular microtubule depolymerization (loss of cellular microtubules) in A-10 cells; format: cell-based
SK-OV-3 = test: Antiproliferative SRB assay, parental SK-OV-3; format: cell-based, human
[1] = system: R2/PCFT4 CHO cells (PCFT); test: Growth inhibition of CHO subline R2/PCFT4 expressing human PCFT; format: cell-based, Chinese hamster; conditions: Cricetulus griseus
[2] = system: R2 CHO cells (transporter-null); test: Growth inhibition of transporter-null R2 CHO cells; format: cell-based, Chinese hamster; conditions: Cricetulus griseus
[3] = system: PC43-10 CHO cells (human RFC); test: Growth inhibition of CHO subline PC43-10 expressing human RFC; format: cell-based, Chinese hamster
RT16 CHO cells (FRα) = test: Growth inhibition of CHO subline RT16 expressing human FRα; format: cell-based, Chinese hamster
[4] = system: KB human tumor cells (RFC/FRα/PCFT); test: Growth inhibition of KB human tumor cells; format: cell-based
From the text: The experiments with the CHO sublines were extended to KB human nasopharyngeal carcinoma cells which express highly elevated FRα, along with RFC and PCFT.

recombinant pjDHFR [5] = target: T1, recombinant pjDHFR (Pneumocystis jirovecii (Human pneumocystis pneumonia agent), UniProt Q9UUP5); conditions: Section I Table 1; cited from earlier work
hDHFR = hDHFR (Homo sapiens (Human), UniProt P00374); test: Inhibition of recombinant hDHFR; format: biochemical; conditions: Section I Table 3; 37° C., 18 μM dihydrofolic acid; title says μM, head nM; read-out: Human DHFR
Chain of hDHFR (P00374 whole entry): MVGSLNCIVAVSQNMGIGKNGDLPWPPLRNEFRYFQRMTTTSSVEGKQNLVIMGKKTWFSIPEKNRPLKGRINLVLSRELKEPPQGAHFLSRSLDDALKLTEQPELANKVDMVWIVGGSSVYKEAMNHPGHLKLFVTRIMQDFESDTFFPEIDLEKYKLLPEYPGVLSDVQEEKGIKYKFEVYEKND

recombinant pjDHFR [6] = target: T1, recombinant pjDHFR; conditions: Section I Table 3
purified tubulin = test: Inhibition of the assembly of purified tubulin; format: biochemical; conditions: Section V Table 3; read-out: Inhibition of tubulin assembly IC50 (μM) ± SD
cellular microtubules = test: Cellular microtubule depolymerization (Section V); format: cell-based; conditions: Section V Table 2; bare values under μM head, EC50/IC50 ratio implies nM
[7] = system: tubulin (colchicine site); test: Inhibition of [3H]colchicine binding to tubulin; conditions: 1 μM inhibitor
[8] = Cricetulus griseus, CHO, Section III Table 1, read-out: D4 (nM) FRβ IC50
[9] = Cricetulus griseus, CHO, Section VI Table 1, read-out: FRβ (nM) D4 IC50
[10] = Rattus norvegicus, A10, Section II Table 1, 50% loss of cellular microtubules, read-out: Microtubule depolymerization (A-10 cells) EC50 ± SD
[11] = R2/PCFT4, Section VI Table 1, read-out: PCFT (nM) R2/PCFT4 IC50
[12] = Section III Table 1, R2/PCFT4, read-out: PCFT4 (nM) PCFT IC50
[13] = Section III Table 1, read-out: R2 (nM) Null IC50
[14] = Section VI Table 1, read-out: R2 IC50
[15] = Homo sapiens, PC43-10, Section III Table 1, read-out: PC43-10 (nM) RFC IC50
[16] = Homo sapiens, PC43-10, Section VI Table 1, read-out: RFC (nM) PC43-10 IC50
[17] = Cricetulus griseus, RT16, Section III Table 1, read-out: RT16 (nM) FRα IC50
[18] = Cricetulus griseus, RT16, Section VI Table 1, read-out: FRα (nM) R16 IC50
[19] = Homo sapiens, Section III Table 1, read-out: KB (nM) RFC/FRα/PCFT IC50
[20] = Homo sapiens, Section VI Table 1, read-out: FRα/PCFT/RFC (nM) KB IC50

In the case of `COc1ccc(N(C)c2nc(C)nc3ccsc23)cc1` [compound 2], the IC50 (SK-OV-3 MDR-1-6/6; Homo sapiens, SK-OV-3, read-out: SK-OV-3 MDR-1-6/6 IC50 ± SD (nM)) is reported as 438 ± 58 nM, the IC50 (HeLa; Homo sapiens, HeLa, read-out: HeLa IC50 ± SD (nM)) is reported as 186 ± 19 nM and the IC50 (D4 CHO cells (FRβ); Cricetulus griseus, CHO, read-out: D4 (nM) FRβ IC50) is reported as 0.52 nM. The IC50 (D4 CHO cells (FRβ); Cricetulus griseus, CHO, read-out: FRβ (nM) D4 IC50) was 2.36 nM, the IC50 (MDA-MB-435 cancer cells; Homo sapiens, MDA-MB-435, read-out: MDA-MB-435 IC50 ± SD (nM)) was 198 ± 23 nM and the IC50 (WT βIII cell line; HeLa, read-out: WT βIII IC50 ± SD (nM)) was 152 ± 14 nM. The EC50 (A-10 cells; Rattus norvegicus, A10, read-out: Microtubule depolymerization (A-10 cells) EC50 ± SD (μM)) was 8.1 µM, the IC50 (SK-OV-3; Homo sapiens, SK-OV-3, read-out: SK-OV-3 IC50 ± SD (nM)) was 253 ± 23 nM and the IC50 ([1]; R2/PCFT4, read-out: PCFT4 (nM) PCFT IC50) was 57.6 nM. The IC50 ([1]; R2/PCFT4, read-out: PCFT (nM) R2/PCFT4 IC50) was 40 nM, the IC50 ([2]; read-out: R2 (nM) Null IC50) was over 1000 nM and the IC50 ([2]; read-out: R2 IC50) was over 1000 nM. For the same compound, the IC50 ([3]; Homo sapiens, PC43-10, read-out: PC43-10 (nM) RFC IC50) was over 1000 nM, the IC50 ([3]; Homo sapiens, PC43-10, read-out: RFC (nM) PC43-10 IC50) was over 1000 nM and the IC50 (RT16 CHO cells (FRα); Cricetulus griseus, RT16, read-out: FRα (nM) R16 IC50) was 1.72 nM. It also gave an IC50 (RT16 CHO cells (FRα); Cricetulus griseus, RT16, read-out: RT16 (nM) FRα IC50) of 1.27 nM, an IC50 ([4]; Homo sapiens, read-out: FRα/PCFT/RFC (nM) KB IC50) of 1.13 nM and an IC50 ([4]; Homo sapiens, read-out: KB (nM) RFC/FRα/PCFT IC50) of 0.34 nM.

In the case of `CSc1ccc(Nc2nc(C)nc3ccsc23)cc1` [compound 3], the IC50 (D4 CHO cells (FRβ); [8]) is reported as 0.43 nM, the IC50 (D4 CHO cells (FRβ); [9]) is reported as over 1000 nM and the EC50 (A-10 cells; [10]) is reported as over 10 µM. For the same compound, the IC50 [1, 11] was over 1000 nM, the IC50 [1, 12] was 41.5 nM and the IC50 [2, 13] was over 1000 nM. The IC50 [2, 14] was over 1000 nM, the IC50 [3, 15] was over 1000 nM and the IC50 [3, 16] was over 1000 nM. It also gave an IC50 (RT16 CHO cells (FRα); [17]) of 2.54 nM, an IC50 (RT16 CHO cells (FRα); [18]) of over 1000 nM and an IC50 [4, 19] of 0.48 nM. The IC50 [4, 20] was 674 nM.

For `COc1cc(NCc2ccc3nc(N)nc(N)c3c2C)cc(OC)c1OC` [TMQ, trimetrexate], the “Hu/Pj selectivity ratio (hDHFR/pjDHFR)” value (recombinant pjDHFR [5]) is listed as 0.1.

For `Cc1nc(N)nc2ccc(Nc3cc(F)c(F)c(F)c3)nc12` [Compound A], the “Hu/Pj selectivity ratio (hDHFR/pjDHFR)” value (recombinant pjDHFR [5]) is listed as 3.5, the IC50 (hDHFR) is listed as 3.1 µM and the Hu/Pj selectivity ratio (recombinant pjDHFR [6]) is listed as 3.5. It also gave an IC50 (recombinant pjDHFR [6]; read-out: DHFR Pj, 37° C., 18 μM dihydrofolic acid, title says μM, head nM) of 0.87 µM.

`COc1ccc(N(C)c2nc(C)nc3cc[nH]c23)cc1` [compound 1] showed an IC50 (HeLa; Homo sapiens, parental HeLa, read-out: HeLa IC50 ± SD) of 270 ± 26 nM, an IC50 (D4 CHO cells (FRβ); [8]) of 10 nM and an IC50 (D4 CHO cells (FRβ); [9]) of 0.2 nM. The IC50 (WT βIII cell line; HeLa transfected with βIII-tubulin, read-out: WT βIII IC50 ± SD) was 186 ± 21 nM, the EC50 (A-10 cells; [10]) was 5.8 µM and the EC50 (A-10 cells; Rattus norvegicus, A10, Section VIII Table 1, read-out: EC50 (nM) in A-10 cells (Loss of cellular microtubules)) was 5.8 µM. It also gave an IC50 (SK-OV-3; Homo sapiens, SK-OV-3, parental cell line, SRB, n = 3, read-out: SK-OV-3 IC50 ± SD) of 278 ± 19 nM, an IC50 [1, 11] of 3.64 nM and an IC50 [1, 12] of 213 nM. The IC50 [2, 13] was over 1000 nM, the IC50 [2, 14] was 289 nM and the IC50 [3, 15] was over 1000 nM. For the same compound, the IC50 [3, 16] was 101 nM, the IC50 (RT16 CHO cells (FRα); [17]) was 6.3 nM and the IC50 (RT16 CHO cells (FRα); [18]) was 0.19 nM. It also gave an IC50 [4, 19] of 1.9 nM and an IC50 [4, 20] of 0.2 nM.

`Nc1nc2[nH]c(CCCc3ccc(C(=O)N[C@@H](CCC(=O)O)C(=O)O)cc3)cc2c(=O)[nH]1` [AGF17, reference compound] showed an IC50 (D4 CHO cells (FRβ); Section IV Table 1, +FA, read-out: FRβ D4 (+FA) IC50) of over 1000 nM, an IC50 (D4 CHO cells (FRβ); Section IV Table 1, read-out: FRβ D4 IC50) of 2.7 nM and an IC50 ([3]; Section IV Table 1, spread in parentheses, read-out: RFC PC43-10 IC50) of 648 nM. It also gave an IC50 (RT16 CHO cells (FRα); Section IV Table 1, +FA, read-out: FRα RT16 (+FA) IC50) of over 1000 nM, an IC50 (RT16 CHO cells (FRα); Section IV Table 1, read-out: FRα RT16 IC50) of 3.2 nM and an IC50 ([4]; Section IV Table 1, +FA, read-out: KB (+FA) IC50) of over 1000 nM. It also gave an IC50 ([4]; Section IV Table 1, read-out: RFC/FRα/PCFT KB IC50) of 1.8 nM.

In the case of `COc1ccc(/C=C\c2cc(OC)c(OC)c(OC)c2)cc1O` [CA4, Combretastatin A-4, reference compound], the IC50 (SK-OV-3 MDR-1-6/6; Pgp overexpressing cell line, SRB, n = 3, read-out: SK-OV-3 MDR-1-6/6 IC50 ± SD) is reported as 6.6 ± 1.3 nM, the IC50 (HeLa; parental HeLa, read-out: HeLa IC50 ± SD) is reported as 4.7 ± 0.2 nM and the IC50 (MDA-MB-435 cancer cells; Section II Table 1, SRB assay, read-out: MDA-MB-435 IC50 ± SD) is reported as 3.4 ± 0.6 nM. For the same compound, the IC50 (MDA-MB-435 cancer cells; Section V Table 2, read-out: IC50 MDA-MB-435) was 4.4 ± 0.46 nM, the IC50 (MDA-MB-435 cancer cells; Section VIII Table 1, read-out: IC50 ± SD (MDA-MB-435) nM cancer cells) was 3.4 ± 0.6 nM and the IC50 (purified tubulin) was […]. It also gave an EC50 (A-10 cells; Section II Table 1, nM, read-out: Microtubule depolymerization (A-10 cells) EC50) of 0.013 µM, an EC50 (A-10 cells; Section VIII Table 1, read-out: EC50 (nM) in A-10 cells (Loss of cellular microtubules)) of 0.013 µM and an IC50 (SK-OV-3; parental cell line, SRB, n = 3, read-out: SK-OV-3 IC50 ± SD) of […]. The EC50 (cellular microtubules) was 9.8 µM and the “Inhibition of colchicine binding % Inhibition ± SD” value [7] was 85 ± 3%.
